Blank lines part the entries; values can stand above or below the molecule they belong to.
Legend:
[1] = test system: Rattus norvegicus; assay: Compound was tested for oral salidiuretic activity (control/drug treatment value) in rats expressed in Na+, mequiv/6 hr at a dose of 128 mg/kg; 0.112/0.407; type: functional, Urine
[2] = biological target: Beta-2 adrenergic receptor (Canis lupus familiaris) (UniProt P54833)
Description: The compound was tested for beta-2 adrenergic receptor blocking activity in dogs

[3] = test system: Rattus norvegicus; assay: Compound was tested for oral salidiuretic activity (control/drug treatment value) in rats expressed as urinary output. at a dose of 128 mg/kg; 7.25/9.43; type: functional, Urine
[4] = biological target: Beta-1 adrenergic receptor (Homo sapiens) (UniProt P08588); conditions: Canis lupus familiaris
Description: Compound was tested for beta-1 adrenergic receptor blocking activity in dogs

[5] = test system: Rattus norvegicus; assay: Compound was tested for oral salidiuretic activity (control/drug treatment value) in rats expressed in Na+, mequiv/6 h at a dose of 128 mg/kg; 0.177/0.304; type: functional, Urine
[6] = test system: Rattus norvegicus; assay: Compound was tested for oral salidiuretic activity (control/drug treatment value) in rats expressed as urinary output. at a dose of 128 mg/kg; 7.87/8.70; type: functional, Urine
[7] = test system: Rattus norvegicus; assay: Compound was tested for oral salidiuretic activity (control/drug treatment value) in rats expressed in Na+, mequiv/6 hr at a dose of 128 mg/kg; 0.186/0.853; type: functional, Urine
[8] = test system: Rattus norvegicus; assay: Compound was tested for oral salidiuretic activity (control/drug treatment value) in rats expressed as urinary output. at a dose of 128 mg/kg; 8.42/10.18; type: functional, Urine
[9] = test system: Rattus norvegicus; assay: Compound was tested for oral salidiuretic activity (control/drug treatment value) in rats expressed in Na+, mequiv/6 hr at a dose of 110 mg/kg; 0.261/0.735; type: functional, Urine
[10] = test system: Rattus norvegicus; assay: Compound was tested for oral salidiuretic activity (control/drug treatment value) in rats expressed as urinary output. at a dose of 55 mg/kg; 7.17/9.58; type: functional, Urine
[11] = test system: Rattus norvegicus; assay: Compound was tested for oral salidiuretic activity (control/drug treatment value) in rats expressed as urinary output. at a dose of 14 mg/kg; 7.17/9.08; type: functional, Urine
[12] = test system: Rattus norvegicus; assay: Compound was tested for oral salidiuretic activity (control/drug treatment value) in rats expressed in Na+, mequiv/6 hr at a dose of 27 mg/kg; 0.261/0.742; type: functional, Urine
[13] = test system: Rattus norvegicus; assay: Compound was tested for oral salidiuretic activity (control/drug treatment value) in rats expressed in Na+, mequiv/6 hr at a dose of 14 mg/kg; 0.261/0.695; type: functional, Urine
[14] = test system: Rattus norvegicus; assay: Compound was tested for oral salidiuretic activity (control/drug treatment value) in rats expressed as urinary output. at a dose of 27 mg/kg; 7.17/9.75; type: functional, Urine
[15] = test system: Rattus norvegicus; assay: Compound was tested for oral salidiuretic activity (control/drug treatment value) in rats expressed as urinary output. at a dose of 110 mg/kg; 7.17/11.20; type: functional, Urine
[16] = test system: Rattus norvegicus; assay: Compound was tested for oral salidiuretic activity (control/drug treatment value) in rats expressed in Na+, mequiv/6 hr at a dose of 110 mg/kg; 0.261/0.735
[17] = test system: Rattus norvegicus; assay: Compound was tested for oral salidiuretic activity (control/drug treatment value) in rats expressed as urinary output. at a dose of 64 mg/kg; 7.67/12.42; type: functional, Urine
[18] = test system: Rattus norvegicus; assay: Compound was tested for oral salidiuretic activity (control/drug treatment value) in rats expressed in Na+, mequiv/6 hr at a dose of 32 mg/kg; 0.181/0.230; type: functional, Urine
[19] = test system: Rattus norvegicus; assay: Compound was tested for oral salidiuretic activity (control/drug treatment value) in rats expressed as urinary output. at a dose of 16 mg/kg; 7.67/8.78; type: functional, Urine
[20] = test system: Rattus norvegicus; assay: Compound was tested for oral salidiuretic activity (control/drug treatment value) in rats expressed in Na+, mequiv/6 hr at a dose of 128 mg/kg; 0.181/0.607; type: functional, Urine
[21] = test system: Rattus norvegicus; assay: Compound was tested for oral salidiuretic activity (control/drug treatment value) in rats expressed in Na+, mequiv/6 hr at a dose of 16 mg/kg; 0.181/0.242; type: functional, Urine
[22] = test system: Rattus norvegicus; assay: Compound was tested for oral salidiuretic activity (control/drug treatment value) in rats expressed in Na+, mequiv/6 hr at a dose of 64 mg/kg; 0.181/0.512; type: functional, Urine
[23] = test system: Rattus norvegicus; assay: Compound was tested for oral salidiuretic activity (control/drug treatment value) in rats expressed as urinary output. at a dose of 32 mg/kg; 7.67/10; type: functional, Urine
[24] = test system: Rattus norvegicus; assay: Compound was tested for oral salidiuretic activity (control/drug treatment value) in rats expressed as urinary output. at a dose of 128 mg/kg; 7.67/14.18; type: functional, Urine
[25] = test system: Rattus norvegicus; assay: Compound was tested for oral salidiuretic activity (control/drug treatment value) in rats expressed in Na+, mequiv/6 hr at a dose of 64 mg/kg; 0.140/0.606
[26] = test system: Rattus norvegicus; assay: Compound was tested for oral salidiuretic activity (control/drug treatment value) in rats expressed as urinary output. at a dose of 64 mg/kg; 10.33/12.42

Sequence of Beta-1 adrenergic receptor (Homo sapiens) (P08588 whole entry, looked up): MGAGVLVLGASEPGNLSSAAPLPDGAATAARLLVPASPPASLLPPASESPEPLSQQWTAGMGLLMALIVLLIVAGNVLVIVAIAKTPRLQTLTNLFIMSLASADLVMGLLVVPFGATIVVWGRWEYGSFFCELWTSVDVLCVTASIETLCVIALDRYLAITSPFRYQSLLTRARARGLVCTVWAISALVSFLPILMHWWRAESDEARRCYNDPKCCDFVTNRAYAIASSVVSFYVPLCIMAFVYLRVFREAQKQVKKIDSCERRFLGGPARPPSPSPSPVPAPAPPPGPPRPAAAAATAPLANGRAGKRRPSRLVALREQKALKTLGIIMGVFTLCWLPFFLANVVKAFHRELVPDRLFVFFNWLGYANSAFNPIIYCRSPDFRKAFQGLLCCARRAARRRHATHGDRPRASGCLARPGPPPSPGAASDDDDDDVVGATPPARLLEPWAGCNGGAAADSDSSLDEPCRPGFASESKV
Sequence of Beta-2 adrenergic receptor (Canis lupus familiaris) (P54833 whole entry, looked up): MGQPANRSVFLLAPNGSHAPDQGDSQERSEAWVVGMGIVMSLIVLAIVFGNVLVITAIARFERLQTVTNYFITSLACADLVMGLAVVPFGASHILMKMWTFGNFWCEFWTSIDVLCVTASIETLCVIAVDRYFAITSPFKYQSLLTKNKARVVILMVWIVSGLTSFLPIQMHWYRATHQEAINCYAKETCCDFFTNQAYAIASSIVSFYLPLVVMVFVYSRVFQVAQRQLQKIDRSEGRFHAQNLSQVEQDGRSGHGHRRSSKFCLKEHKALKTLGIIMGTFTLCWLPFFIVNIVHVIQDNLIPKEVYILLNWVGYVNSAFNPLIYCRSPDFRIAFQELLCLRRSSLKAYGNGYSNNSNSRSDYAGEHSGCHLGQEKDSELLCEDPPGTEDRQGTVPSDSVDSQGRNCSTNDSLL

ID50 [2]: 0.25 mg/kg
ID50 [4]: 0.17 mg/kg
SMILES: CC(C)NCC(O)COc1ccc(NC(=O)c2cccs2)cc1C(=O)OC(C)C (centres undefined)
Activity [1]: 0.112
Activity [3]: 7.25 mL

ID50 [2]: > 1 mg/kg
ID50 [4]: 0.45 mg/kg
SMILES: CC(=O)c1cc(NC(=O)c2cccs2)ccc1OCC(O)CNC(C)C (centres undefined)
Activity [5]: 0.177
Activity [6]: 7.87 mL

ID50 [2]: > 1 mg/kg
ID50 [4]: 0.06 mg/kg
SMILES: CCOC(=O)c1cc(NC(=O)c2ccsc2)ccc1OCC(O)CNC(C)(C)C (centres undefined)
Activity [7]: 0.186
Activity [8]: 8.42 mL

SMILES: NS(=O)(=O)c1cc2c(cc1Cl)NCNS2(=O)=O [HYDROCHLOROTHIAZIDE]
Activity [9]: 0.261
treated urinary output [10]: 9.58 mL
Activity [11]: 7.17 mL
Activity [12]: 0.261
Activity [13]: 0.261
Activity [14]: 7.17 mL
treated urinary output [15]: 11.2 mL
Activity [16]: 0.261

ID50 [2]: > 1 mg/kg
ID50 [4]: 0.075 mg/kg
SMILES: CC(C)(C)NCC(O)COc1ccc(NC(=O)c2cccs2)cc1 (centres undefined)
Activity [17]: 7.67 mL
Activity [18]: 0.181
Activity [19]: 7.67 mL
Activity [20]: 0.181
Activity [21]: 0.181
Activity [22]: 0.181
treated urinary output [23]: 10 mL
Activity [24]: 7.67 mL

ID50 [2]: > 1 mg/kg
ID50 [4]: 0.02 mg/kg
SMILES: Cc1cc(NC(=O)c2cccs2)ccc1OCC(O)CNC(C)C (centres undefined)
Activity [25]: 0.14
Activity [26]: 10.33 mL

Reference: ChEMBL document CHEMBL1123539, “[p-[(Thienylcarbonyl)amino]phenoxy]propanolamines derivatives as diuretic and beta-adrenergic receptor blocking agents” (1986)
